This note sets out measurements from patent US20250255889A1, “METHODS FOR TREATMENT SELECTION FOR CHRONIC LYMPHOCYTIC LEUKEMIA (CLL)” (The Broad Institute, Inc., priority 2022, published 2025).

The experiment deals with primary CLL samples (CD19+ and CD5+ cells). Kind of experiment: High-throughput dynamic BH3 profiling (HT-DBP): drug-induced apoptotic priming (delta priming), cytochrome c release after BH3 peptide. It counts as cell-based, human. The procedure:
By “delta priming” is meant the difference in priming of a cell for apoptosis measured in the presence of an agent for treating chronic lymphocytic leukemia relative to priming of the cell in the presence of an inert carrier. In embodiments, the inert carrier is DMSO.
Dynamic BH3 Profiling Dynamic BH3 profiling (DBP) is a drug screening assay that measures the relative priming of cells in a biological sample for cell death by apoptosis in the presence of a specific compound and/or a pro-apoptotic peptide. By “Dynamic BH3 profiling” is meant measuring drug-induced changes in mitochondrial apoptotic priming. Mitochondrial apoptotic priming is a measure of how close to the apoptotic threshold a cell is. A highly primed cell has relatively less anti-apoptotic binding site availability and is closer to the apoptotic threshold than a poorly primed cell, which has more anti-apoptotic availability to buffer an apoptotic assault and is further from the apoptotic threshold. BH3 peptides derived from the BH3 domain of pro-apoptotic BH3-only proteins provoke a response from viable mitochondria. Cytochrome c released from the mitochondria after a short incubation with BH3 peptide is used as a surrogate for priming. In general, the more sensitive a mitochondrion is to a BH3 peptide, the more primed it is. A drug treatment that enhances priming will cause mitochondria to undergo MOMP more easily when incubated with a fixed concentration of a promiscuously binding BH3 peptide, such as BIM BH3 peptide, compared to control-treated cells. See, for example, Potter, D. S. & Letai, A. To prime, or not to prime: that is the question. Cold Spring Harb. Symp. Quant. Biol. 81, 131-140 (2016); Montero, J. et al. Drug-induced death signaling strategy rapidly predicts cancer response to chemotherapy. Cell 160, 977-989 (2015); Daniels, V. W. et al. Metabolic perturbations sensitize triple-negative breast cancers to apoptosis induced by BH3 mimetics. Sci.
Dynamic BH3 profiling and peptides for use therein are described, for example, in Certo, et al., “Mitochondria primed by death signals determine cellular addiction to antiapoptotic BCL-2 family members,” Cancer Cell, 9:351-365 (2006); and in Foight, et al. “Designed BH3 Peptides with High Affinity and Specificity for Targeting Mcl-1 in Cells,” ACS Chemical Biology, 9:1962-1968 (2014), the disclosures of which are incorporated herein by reference in their entireties for all purposes. The DBP assay enables one to compare the response of a patient tumor sample to a specific drug relative to other drugs and relative to an inert control (e.g., DMSO).
To address the challenge of selecting a proper treatment for a chronic lymphocytic leukemia, experiments were undertaken to optimize high-throughput dynamic BH3 profiling (HT-DBP) for evaluation of the drug sensitivities of CLL samples (FIGS. 1, 13, 5A, 5B, 6A, 6B, and 7A-7C).

[1] abbreviates: peptide PUMA 1 uM, feature EC-m2.
Setting [2] is: peptide PUMA 1 uM, feature loss_6q21.
[3] abbreviates: peptide PUMA 1 uM, feature loss_7p22.2.
Where [4] appears, read: peptide MS1 2.5 uM, feature ITIH2.
Setting [5] is: peptide BIM 0.01 uM, feature FBXW7.
Setting [6] is: peptide BIM 0.01 uM, feature gain_19p13.3.

In the case of `Cc1c(-c2ccc(N3CCc4cccc(C(=O)Nc5nc6ccccc6s5)c4C3)nc2C(=O)O)cnn1CC12CC3CC(CC(C3)C1)C2` [A-1331852], the direction result (Feature EC-m2) is on record as “Resistant”; the direction entry (peptide BAD 0.3 uM, feature CNOT3) is listed as “Sensitive”; the direction entry (peptide BIM 0.01 uM, feature CARD11) is reported as “Resistant”; the direction entry (peptide BIM 0.01 uM, feature EC-u2) was “Sensitive”; the direction entry (peptide BIM 0.01 uM, feature MYD88) was “Resistant”; the direction result (peptide PUMA 1 uM, feature CNOT3) is listed as “Sensitive”. The direction result under setting [1] is “Resistant” and the direction result under setting [2] was “Resistant”.

With `Cc1c2c(nn1C)CSCc1cc(n(C)n1)CSc1cc(c3ccccc3c1)OCCCc1c(C(=O)O)n(C)c3c-2c(Cl)ccc13` [AZD5991], the direction result (Feature EC-i) was “Sensitive”; the direction result (Feature loss_3p13) is recorded as “Sensitive”; the direction result (peptide BAD 0.3 uM, feature EC-i) is “Sensitive”; the direction result (peptide BAD 0.3 uM, feature POT1) is recorded as “Sensitive”; the direction result (peptide BAD 0.3 uM, feature loss_1q42.13) was “Sensitive”; the direction entry (peptide BAD 0.3 uM, feature loss_7p22.2) is on record as “Sensitive”. Besides, the direction result by setting is: (peptide BAD 0.3 uM, feature loss_14q32.12) “Sensitive”; (peptide BAD 0.3 uM, feature loss_16p11.2) “Sensitive”; (peptide BIM 0.01 uM, feature ANK1) “Sensitive”; (peptide BIM 0.01 uM, feature loss_1p36.11) “Sensitive”; (peptide BIM 0.01 uM, feature loss_3p13) “Sensitive”; (peptide BIM 0.01 uM, feature loss_15q26.1) “Sensitive”. Besides, the direction entry is, setting by setting: (peptide BIM 0.01 uM, feature loss_18q21.2) “Sensitive”; (peptide MS1 2.5 uM, feature CNOT3) “Sensitive”; (peptide PUMA 1 uM, feature BIRC3) “Sensitive”; (peptide PUMA 1 uM, feature EC-i) “Sensitive”; (peptide PUMA 1 uM, feature loss_1q42.13) “Sensitive”; under setting [3], “Sensitive”. The direction result is, setting by setting: (peptide PUMA 1 uM, feature loss_9p21.3) “Sensitive”; (peptide PUMA 1 uM, feature loss_16p11.2) “Sensitive”; (peptide PUMA 1 uM, feature loss_17q11.2) “Sensitive”.

For the compound `COc1ccc(-c2ccc3c(N4CCOC[C@@H]4C)nc(N4CCOC[C@@H]4C)nc3n2)cc1CO` [AZD8055], the direction result was “Resistant” (peptide MS1 2.5 uM, feature IGLV321_R110); “Resistant” (peptide MS1 2.5 uM, feature NOTCH1); “Resistant” (peptide MS1 2.5 uM, feature RPS15); “Resistant” (peptide MS1 2.5 uM, feature loss_1p36.11); “Resistant” (peptide MS1 2.5 uM, feature loss_3p13); “Resistant” (peptide MS1 2.5 uM, feature loss_6q). Moreover, the direction entry (peptide MS1 2.5 uM, feature loss_18q21.2) is “Resistant”.

For `CN(C)Cc1c(C(=O)NCCOc2ccc(C(=O)NO)cc2)oc2ccccc12` [Abexinostat], under “across CLL subtypes, 65 primary CLL samples, 20 hours drug”, the drug-induced apoptotic priming entry is “high priming”. The “efficacy by DBP response” value (cases where patients would be likely resistant to Nutlin 3, MK-2206 and Zanubrutinib) is “effective”. The direction result by setting is: (peptide BAD 0.3 uM, feature EC-m2) “Sensitive”; (peptide BIM 0.01 uM, feature CNOT3) “Sensitive”; (peptide BIM 0.01 uM, feature EC-m2) “Sensitive”; (peptide BIM 0.01 uM, feature loss_17q23.1) “Sensitive”; (peptide BIM 0.01 uM, feature priortrt_Post) “Sensitive”; (peptide MS1 2.5 uM, feature FBXW7) “Sensitive”. Also, the direction entry runs as follows: under setting [4], “Sensitive”; (peptide MS1 2.5 uM, feature priortrt_Post) “Sensitive”; under setting [1], “Sensitive”; under setting [2], “Sensitive”; (peptide PUMA 1 uM, feature loss_17q23.1) “Sensitive”.

As for `CC(C)c1c(C(=O)Nc2ccccc2)c(-c2ccccc2)c(-c2ccc(F)cc2)n1CC[C@@H](O)C[C@@H](O)CC(=O)O` [Atorvastatin], the direction result was “Sensitive” (peptide BAD 0.3 uM, feature EC-u1); “Sensitive” (peptide BAD 0.3 uM, feature FBXW7); “Resistant” (peptide BAD 0.3 uM, feature M-CLL); “Sensitive” (peptide BAD 0.3 uM, feature RFX7); “Sensitive” (peptide BAD 0.3 uM, feature U-CLL); “Sensitive” (peptide BAD 0.3 uM, feature ZMYM3). Further, the direction entry (peptide BAD 0.3 uM, feature gain_19p13.3) was “Sensitive”; the direction entry (peptide BAD 0.3 uM, feature m-CLL) was “Resistant”; the direction entry (peptide BAD 0.3 uM, feature n-CLL) is given as “Sensitive”; the direction entry (peptide BIM 0.01 uM, feature EC-u1) is “Resistant”; the direction entry under setting [5] is listed as “Resistant”; the direction entry (peptide BIM 0.01 uM, feature RFX7) is “Resistant”. Besides, the direction entry runs as follows: (peptide BIM 0.01 uM, feature ZMYM3) “Resistant”; under setting [6], “Resistant”; (peptide BIM 0.01 uM, feature loss_2q31.1) “Resistant”; (peptide BIM 0.01 uM, feature loss_10p12.2) “Resistant”; (peptide BIM 0.01 uM, feature loss_10q24.2) “Resistant”; (peptide BIM 0.01 uM, feature n-CLL) “Resistant”. Further, the direction result is recorded as “Resistant” (peptide MS1 2.5 uM, feature RFX7); “Resistant” (peptide MS1 2.5 uM, feature ZMYM3); “Resistant” (peptide MS1 2.5 uM, feature loss_2q31.1); “Resistant” (peptide MS1 2.5 uM, feature loss_10p12.2); “Resistant” (peptide MS1 2.5 uM, feature loss_10q24.2); “Resistant” (peptide MS1 2.5 uM, feature loss_11q22.3). The direction entry by setting is: (peptide MS1 2.5 uM, feature n-CLL) “Resistant”; (peptide PUMA 1 uM, feature FBXW7) “Resistant”; (peptide PUMA 1 uM, feature RFX7) “Resistant”; (peptide PUMA 1 uM, feature ZMYM3) “Resistant”; (peptide PUMA 1 uM, feature gain_16p11.2) “Resistant”; (peptide PUMA 1 uM, feature loss_2q31.1) “Resistant”. For the same compound, the direction entry is “Resistant” under setting [3] and “Resistant” (peptide PUMA 1 uM, feature loss_10p12.2).

Regarding `Nc1ncn([C@@H]2O[C@H](CO)[C@@H](O)[C@H]2O)c(=O)n1` [Azacitidine], the direction entry is “Sensitive” (Feature CARD11); “Sensitive” (peptide BAD 0.3 uM, feature CARD11); “Sensitive” (peptide BAD 0.3 uM, feature MYD88); “Sensitive” (peptide BAD 0.3 uM, feature loss_19p13.11); “Resistant” (peptide BIM 0.01 uM, feature BIRC3); “Resistant” under setting [5]. Besides, the direction result reads like this: (peptide BIM 0.01 uM, feature ITIH2) “Resistant”; under setting [6], “Resistant”; (peptide BIM 0.01 uM, feature loss_9p21.3) “Resistant”; (peptide BIM 0.01 uM, feature loss_17q11.2) “Resistant”; (peptide MS1 2.5 uM, feature BIRC3) “Sensitive”; under setting [4], “Sensitive”. The direction result was “Sensitive” (peptide MS1 2.5 uM, feature loss_9p21.3); “Sensitive” (peptide MS1 2.5 uM, feature loss_17q11.2); “Sensitive” (peptide MS1 2.5 uM, feature loss_19p13.11); “Sensitive” (peptide PUMA 1 uM, feature CARD11).
